Laboratory results published in ChEMBL document CHEMBL6120988, “Mitochondria-targeting artesunate-rhein conjugates: Linker-modulated cell-permeability, heme-affinity and anticancer activity” (Eur J Med Chem, 2025).
Activity calls are given as the source filed them. The rule behind the calls is not given here.

Tests used:
MCF7 = assay: Cytotoxicity against human MCF7 cells assessed as cell viability by MTT assay; type: functional, cell-based
[1] = Toxicity against female BALB/c mouse allografted with mouse 4T1 cells assessed as effect on red blood cells at 10 mg/kg, iv administrated every 3 days for 5 times and measured after 22 days; type: organism-based; conditions: in vivo, 528 h, time 22 day
4T1 [2] = assay: Induction of mitochondrial dysfunction in mouse 4T1 cells assessed as ATP production; type: functional, cell-based
4T1 [3] = assay: Antitumor activity against mouse 4T1 cells allografted in female BALB/c mouse assessed as increase in infiltration of CD44+CD62L- lymphocytes in tumors at 10 mg/kg, iv administrated every day for 15 times and measured after 22 days by flow cytometry (reference value: 5.17%); type: functional; conditions: time 22 day
HeLa = assay: Cytotoxicity against human Hela cells assessed as cell viability by MTT assay; type: functional, cell-based
4T1 [4] = assay: Induction of apoptosis in mouse 4T1 cells assessed as late apoptotic cells by Annexin V-FITC and PI staining based flow cytometry analysis (reference value: 0.13 %); type: functional
[5] = AUC(0 to t) in mouse at 100 mg/kg, po; type: ADME, organism-based; conditions: in vivo
[6] = Half life in mouse iv dosed mouse; type: ADME, organism-based; conditions: in vivo
4T1 [7] = assay: Antitumor activity against mouse 4T1 cells allografted in female BALB/c mouse assessed as inhibition of cell proliferation at 10 mg/kg, iv administrated every 3 day for 5 times and measured after 22 days by PCNA assay; type: functional, organism-based; conditions: time 22.0 day
4T1 [8] = assay: Induction of apoptosis in mouse 4T1 cells assessed as necrotic cells by Annexin V-FITC and PI staining based flow cytometry analysis (reference value: 0.085 %); type: functional
4T1 [9] = assay: Antitumor activity against mouse 4T1 cells allografted in female BALB/c mouse assessed as reduction in tumor tissue weight at 100 mg/kg, po administrated every day for 15 times and measured after 22 days; type: functional, organism-based; conditions: time 22.0 day
4T1 [10] = assay: Antitumor activity against mouse 4T1 cells allografted in female BALB/c mouse assessed as increase in infiltration of CD44+CD62L- lymphocytes in tumors at 100 mg/kg, po administrated every day for 15 times and measured after 22 days by flow cytometry (reference value: 5.5%); type: functional; conditions: time 22 day
4T1 [11] = assay: Potency index, ratio of paclitaxel IC50 to test compound IC50 for cytotoxicity against mouse 4T1 cells assessed as cell viability by MTT assay; type: functional
[12] = Tmax in mouse iv dosed mouse; type: ADME, organism-based; conditions: in vivo
4T1 [13] = assay: Induction of immunogenic cell death in mouse 4T1 cells assessed as increase in CRT exposure on cell surface by measuring increase in red fluorescence by CLSM analysis (reference value: 2.55%); type: functional
4T1 [14] = assay: Antitumor activity against mouse 4T1 cells allografted in female BALB/c mouse assessed as increase in nuclear shrinkage at 10 mg/kg, iv administrated every 3 day for 5 times and measured after 22 days; type: functional, organism-based; conditions: time 22.0 day
4T1 [15] = assay: Antitumor activity against mouse 4T1 cells allografted in female BALB/c mouse assessed as increase in apoptotic cells at 10 mg/kg, iv administrated every 3 day for 5 times and measured after 22 days by TUNEL staining based assay; type: functional, organism-based; conditions: time 22.0 day
[16] = Toxicity in female BALB/c mouse allografted with mouse 4T1 cells assessed as effect on blood platelet at 100 mg/kg, po administrated every day for 15 times and measured after 22 days; type: organism-based; conditions: in vivo, 528 h, time 22 day
4T1 [17] = assay: Induction of immunogenic cell death in mouse 4T1 cells assessed as increase in ATP release by measuring increase in red fluorescence by CLSM analysis relative to R/A group; type: functional, cell-based
[18] = Toxicity against female BALB/c mouse allografted with mouse 4T1 cells assessed as mean corpuscular volume at 10 mg/kg, iv administrated every 3 days for 5 times and measured after 22 days; type: organism-based; conditions: in vivo, 528 h, time 22 day
4T1 [19] = assay: Cytotoxicty against mouse 4T1 cells assessed as cell death by measuring red staining by calcein/PI staining based live/dead staining analysis; type: functional
4T1 [20] = assay: Immunostimulatory activity in mouse 4T1 cells implanted in female BALB/c mouse assessed as increase in immunostimulatory CD86+ expression; type: functional, cell-based
[21] = Toxicity against female BALB/c mouse allografted with mouse 4T1 cells assessed as mean corpuscular hemoglobin concentration at 100 mg/kg, po administrated every day for 15 times and measured after 22 days; type: organism-based; conditions: in vivo, 528 h, time 22 day
[22] = Toxicity against female BALB/c mouse allografted with mouse 4T1 cells assessed as effect on red blood cells at 100 mg/kg, po administrated every day for 15 times and measured after 22 days; type: organism-based; conditions: in vivo, 528 h, time 22 day
4T1 [23] = assay: Induction of immunogenic cell death in mouse 4T1 cells allografted in female BALB/c mouse assessed as increase in CD80+ CD86+CD11c+ cells DC maturation at 10 mg/kg, iv administrated every 3 days for 5 times and measured after 22 days by flow cytometry (reference value: 7.77 %); type: functional; conditions: time 22 day
[24] = Toxicity against female BALB/c mouse allografted with mouse 4T1 cells assessed as hemoglobin at 10 mg/kg, iv administrated every 3 days for 5 times and measured after 22 days; type: organism-based; conditions: in vivo, 528 h, time 22 day
4T1 [25] = assay: Induction of immunogenic cell death in mouse 4T1 cells allografted in female BALB/c mouse assessed as increase in CD80+ CD86+CD11c+ cells DC maturation at 100 mg/kg, po administrated every day for 15 times and measured after 22 days by flow cytometry (reference value: 7.20 %); type: functional; conditions: time 22 day
A549 = assay: Cytotoxicity against human A549 cells assessed as cell viability by MTT assay; type: functional, cell-based
4T1 [26] = assay: Induction of apoptosis in mouse 4T1 cells assessed as early apoptotic cells by Annexin V-FITC and PI staining based flow cytometry analysis(reference value: 3.60 %); type: functional
[27] = Toxicity against female BALB/c mouse allografted with mouse 4T1 cells assessed as hemoglobin at 100 mg/kg, po administrated every day for 15 times and measured after 22 days; type: organism-based; conditions: in vivo, 528 h, time 22 day
4T1 [28] = assay: Antitumor activity against mouse 4T1 cells allografted in female BALB/c mouse assessed as increase in infiltration of CD3+ CD8+ T lymphocytes in tumors at 100 mg/kg, po administrated every day for 15 times and measured after 22 days by flow cytometry (reference value: 6.91 %); type: functional; conditions: time 22 day
[29] = Drug uptake in mouse 4T1 cells after 3 hrs by flow cytometry analysis; type: ADME, cell-based; conditions: 4t1, 3 h
[30] = Half life in mouse at 100 mg/kg, po; type: ADME, organism-based; conditions: in vivo
4T1 [31] = assay: Induction of mitochondrial dysfunction in mouse 4T1 cells assessed as maximum respiration; type: functional, cell-based
4T1 [32] = assay: Cytotoxicty against mouse 4T1 cells assessed as cell viability by MTT assay; type: functional, cell-based
4T1 [33] = assay: Induction of mitochondrial dysfunction in mouse 4T1 cells assessed as basal respiration; type: functional, cell-based
[34] = Toxicity in female BALB/c mouse allografted with mouse 4T1 cells assessed as survival rate at 10 mg/kg, iv administrated every 3 day for 5 times and measured after 22 days relative to control; type: organism-based; conditions: in vivo, 528 h, time 22 day
[35] = Tmax in mouse at 100 mg/kg, po; type: ADME, organism-based; conditions: in vivo
[36] = Toxicity in female BALB/c mouse allografted with mouse 4T1 cells assessed as change in body weight at 100 mg/kg, po administrated every day for 15 times and measured every 2 days for 22 days relative to control; type: organism-based; conditions: in vivo, 528 h, time 22 day

C[C@H]1[C@H](OC(=O)CCC(=O)OCCCCOC(=O)c2cc(O)c3c(c2)C(=O)c2cccc(O)c2C3=O)O[C@@H]2O[C@@]3(C)CC[C@H]4[C@H](C)CC[C@@H]1[C@@]24OO3
IC50 (MCF7): 1.9 µM
Activity [1]: Non-toxic
Activity (4T1 [2]): Active
Activity (4T1 [3]): 14.4%
IC50 (HeLa): 2.43 µM
Activity (4T1 [4]): 29.4%
AUC(0-t) [5]: 18.2 µg·h/mL
half-life [6]: 7.01 h
Activity (4T1 [7]): Active
Activity (4T1 [8]): 0.27%
Activity (4T1 [9]): Active
Activity (4T1 [10]): 17.2%
Ratio IC50 (4T1 [11]): 3
Tmax [12]: 0.17 h
Activity (4T1 [13]): Active
Activity (4T1 [13]; record 2): 32.82%
Activity (4T1 [14]): Active
Activity (4T1 [15]): Active
Activity [16]: Non-toxic
Activity (4T1 [17]): Active
Activity [18]: Non-toxic
Activity (4T1 [19]): Active
Activity (4T1 [20]): Active
Activity [21]: Non-toxic
Activity [22]: Non-toxic
Activity (4T1 [23]): 20%
Activity [24]: Non-toxic
Activity (4T1 [25]): 17.4%
IC50 (A549): 2.79 µM
Activity (4T1 [26]): 34.8%
Activity [27]: Non-toxic
Activity (4T1 [28]): 15.4%
Activity [29]: Active
half-life [30]: 5.15 h
Activity (4T1 [31]): Active
IC50 (4T1 [32]): 1.13 µM
Activity (4T1 [33]): Active
Survival [34]: <= 39 day
Tmax [35]: 3 h
Activity [36]: Non-toxic
